# Measured values published in paper doi:10.1101/2024.12.09.627393 (bioRxiv, 2024).
# Tested on: CECR2-BRD
# Experiment: 2D 15N-HSQC NMR chemical shift perturbation titration
# Assay type: binding, human
# Settings: 15N-labeled CECR2-BRD, 25°C; 3% DMSO, or NVS-CECR2–1 including 3% DMSO
# Procedure: CECR2-BRD was expressed and purified for NMR experiments following previously established methods, [18]. Briefly, uniformly labeled ^15N CECR2-BRD samples in buffer containing 20 mM Tris-HCl pH 6.8, 150 mM NaCl, 1 mM TCEP, and 10% D2O were purified at 0.30 mM for chemical-shift perturbation experiments.
# All two-dimensional (2D) ^15N-HSQC (heteronuclear single quantum […]) experiments were acquired at 25°C using a 600 MHz Bruker AVANCE III spectrometer equipped with a z-gradient 1.7 mm TCI probe at the National Magnetic Resonance Facility at Madison (NMRFAM). The experimental setup for all 2D experiments was kept similar to our previous studies, [18]. […] Chemical Shift Perturbations (CSP) from the final titration point were calculated and normalized as described by Williamson[21], using the equation: Δδ=√ΔδH^2+α⋅ΔδN^2 Where α=0.2 for glycine, and 0.14 for all other residues. ΔδH and ΔδN represent chemical shifts in ppm for hydrogen and nitrogen atoms, respectively. […] These were calculated using the standard deviation (Δ ppm/ Standard deviation ppm, where standard deviation was calculated for each histone ligand) of the Euclidean chemical change of the residues as described previously, [18].
row,SMILES,Chemical shift perturbations of CECR2-BRD residues (in words)
1,C[S+](C)[O-] [DMSO],significant (> 1 Δppm) shifts in residues within the ZA loop and BC loop region
2,CCCS(=O)(=O)c1nc(NC2CC2)cc(-c2ccc3c(ccn3C3CC(C)(C)NC(C)(C)C3)c2)n1 [NVS-CECR2–1],"CSPs in some residues within αA, αB and αC helices"
